Results on six compounds are retold here after patent publication US6939968B2, “Atropisomers of 3-substituted-4-arylquinolin-2-one derivatives” (Bristol-Myers Squibb Company, priority 2002, dated 2005).

Assay [1] deals with cloned mammalian (mSlo or hSlo) BK channels heterologously expressed in Xenopus oocytes. As to the kind of experiment: BK-mediated outward current in Xenopus oocytes, two-electrode voltage clamp. The assay is classed as cell-based. Particulars: for Current: compounds at 10 μM, IBTX at supramaximal concentration (50-100 nM); for BK Current: at 10 μM, percent increase over BK current in controls, voltage step to +140 mV, IBTX-sensitive current. The method, then: The ability of the compounds of the invention to open BK channels and increase whole-cell outward (K+) BK-mediated currents was assessed under voltage-clamp conditions by determining their ability to increase cloned mammalian (mSlo or hSlo) BK—mediated outward current heterologously expressed in Xenopus oocytes [Butler, A., et al., Science, 261: 221-224 (1993); Dworetzky, S. I., et al., Mol. Brain Res., 27: 189-193 (1994); Gribkoff, V. K., et al., Mol. Pharmacol., 50:206-217 (1996)]. The two BK constructs employed represent nearly structurally identical homologous proteins, and have proven to be pharmacologically indistinguishable in our tests. To isolate BK current from native (background, non-BK) current, the specific and potent BK channel-blocking toxin iberiotoxin (IBTX) [Galvez, A., et al., J. Biol. Chem., 265: 11083-11090 (1990)] was employed at a supramaximal concentration, e.g., 50-100 nanomolar (“nM”). The relative contribution of BK channel-mediated current to total outward current was determined by subtraction of the current remaining in the presence of IBTX (non-BK current) from the current profiles obtained in all other experimental conditions (control, drug, and wash) [Gribkoff, V. K. et al., Mol. Pharmacol., 50:206-217 (1996)]. […] All compounds were tested in 5-10 oocytes and are reported at the indicated concentration of 10 micromolar (“μM”); the effect of the selected compounds of the invention on BK current was expressed as the percent of control IBTX-sensitive current at a single transmembrane voltage (+140 mV) and is listed in Table 1. Recordings were accomplished using standard two-electrode voltage clamp techniques [Stuhmer, W., et al., Methods in Enzymology, Vol. 207: 319-339 (1992)]; voltage-clamp protocols consisted of 500-750 milliseconds (“ms”) duration step depolarizations, from a holding potential of −60 mV, to a final voltage up to +140 mV in 20 mV steps. Table 2 lists the current-voltage (I-V) data for two compounds of the invention, applied to oocytes at a concentration of 10 μM. The experimental media (modified Barth's solution) consisted of millimolar (“mM”): NaCl (88), NaHCO3 (2.4), KCl (1.0), HEPES (10), MgSO4 (0.82), Ca(NO3)2 (0.33), CaCl2 (0.41); pH 7.5.

Assay [2] relates to stress-induced colonic motility (fecal pellet output). As to the kind of experiment: Air jet stress-induced colonic motor activity. The assay is classed as in vivo. The note with it: rats, 20 mg/kg ip. The method, then:
Environmental stress is believed to play a role in irritable bowel syndrome and other altered bowel motility states. […] Based on this, we tested the hypothesis that maxi-K^+potassium channel openers of the present invention can be effective in reducing stress-induced acceleration in colonic motility, as indexed by fecal pellet output.
Rats were randomly divided into 2 groups and treated with vehicle (polyethylene glycol (400 grams per mole), 1 mL/kg, ip) or the compound of Example 1 in racemate form (20 mg/kg) at time zero. At 1.5 hr post-treatment, each rat was partially restrained in plexiglas container and was subjected to air-jet stress. This was brought about by exposing each of the partially-restrained animals to 3-4 episodes of 2 minute long air jets with an interval of 8-10 minutes between episodes. The fecal output was collected and the wet weight was recorded. The data were analyzed by combining individual output within each group to calculate a group mean and the means were compared using a statistical test (unpaired, two-tailed t-test; p<0.05).

Where “and” joins values, the source holds several entries; their conditions need not be identical. Equal values may be shown once.

As to `Cn1c(=O)c(CCO)c(-c2cc(Cl)ccc2O)c2cc(C(F)(F)F)ccc21` [Example 2], the Current in assay [1] (voltage 0 mV) came to 0 μA; in assay [1] (voltage 20 mV), 0 μA; in assay [1] (voltage 40 mV), 0.2 μA; in assay [1] (voltage 60 mV), 0.6 μA; in assay [1] (voltage 80 mV), 1.4 μA; in assay [1] (voltage 100 mV) it was 2.5 μA. Further, the Current in assay [1] (voltage 120 mV) turned out to be 3.9 μA; in assay [1] (voltage 140 mV), 5.6 μA; in assay [1] (voltage −20 mV), 0 μA; in assay [1] (voltage −40 mV), 0 μA.
`O=c1[nH]c2ccc(C(F)(F)F)cc2c(-c2cc(Cl)ccc2O)c1CCO` (racemic) [Example 1, 4-(5-Chloro-2-hydroxyphenyl)-3-(2-hydroxyethyl)-6 (trifluoromethyl)-2(1H)-Quinolinone]: the Current in assay [1] (voltage 0 mV) amounted to 0.2 μA; in assay [1] (voltage 20 mV), 0.7 μA; in assay [1] (voltage 40 mV), 1.8 μA; in assay [1] (voltage 60 mV), 3.3 μA; in assay [1] (voltage 80 mV), 4.9 μA; in assay [1] (voltage 100 mV), 6.6 μA. In addition, the Current in assay [1] (voltage 120 mV) is 8.4 μA; in assay [1] (voltage 140 mV) it was 10.2 μA; in assay [1] (voltage −20 mV) it was 0 μA; in assay [1] (voltage −40 mV), 0 μA. For the same compound, in assay [2] (air-jet stress 1.5 hr post-treatment, vehicle group 0.37 grams), the “fecal output (wet weight, group mean)” value stood at 0.03 grams. Besides, in assay [2] (vehicle group 9/12), the “animals showing a defecatory response to air-jet” value is 3 out of 11.
In the case of `Cn1c(=O)c(CCO)c(-c2cc(Cl)ccc2O)c2cc(C(F)(F)F)ccc21` (single isomer, unassigned) [Example 5-atropisomer A, (−) 4-(5-Chloro-2-hydroxy-phenyl)-1-methyl-3-(2-hydroxy-ethyl)-6-trifluoromethyl-1H-quinolin2-one], the “BK Current” value in assay [1] was 360.8 ± 29.6% and 183.6 ± 9.50%.
Turning to “iberiotoxin (QFTDVDCSVSKECWSVCKDLFGVDRGKCMGKKCRCYQ; UniProt P24663 1-37, looked up) [IBTX, reference compound]”, the Current was 0 μA in assay [1] (voltage 0 mV); 0 μA in assay [1] (voltage 20 mV); 0 μA in assay [1] (voltage 40 mV); 0 μA in assay [1] (voltage 60 mV); 0.1 μA in assay [1] (voltage 80 mV); 0.2 μA in assay [1] (voltage 100 mV). Also, the Current in assay [1] (voltage 120 mV) was found to be 0.6 μA; in assay [1] (voltage 140 mV) it was 1.2 μA; in assay [1] (voltage −20 mV) it was 0 μA; in assay [1] (voltage −40 mV), 0 μA.
`O=c1[nH]c2ccc(C(F)(F)F)cc2c(-c2cc(Cl)ccc2O)c1CCO` (single isomer, unassigned) [Example 3-atropisomer B, (+) 4-(5-Chloro-2-hydroxy-phenyl)-3-(2-hydroxy-ethyl)-6-trifluoromethyl-1H-quinolin2-one]: the “BK Current” value in assay [1] (listed as 3-atropisomer B) is on record as 213.9 ± 21.4%.
For the compound `O=c1[nH]c2ccc(C(F)(F)F)cc2c(-c2cc(Cl)ccc2O)c1CCO` (single isomer, unassigned) [Example 3-atropisomer A, (−) 4-(5-Chloro-2-hydroxy-phenyl)-3-(2-hydroxy-ethyl)-6-trifluoromethyl-1H-quinolin2-one], the “BK Current” value in assay [1] (listed as 3-atropisomer A) amounted to 291.8 ± 26.8%.
